Experimental data: publication PMC9456008, “Enantiocontrolled Preparation of ϒ-Substituted Cyclohexenones: Synthesis and Kinase Activity Assays of Cyclopropyl-Fused Cyclohexane Nucleosides” (International Journal of Molecular Sciences, 2022)
Entries after “also recorded” stand apart in the source; their conditions may differ.

Key:
[1] = target: T1, HSV-1 TK (Human herpesvirus 1, UniProt P0DTH5); assay: Thymidine kinase assay using [CH3-3H]dThd as natural substrate, HSV-1 TK; format: biochemical
Experimental: (§1) Thymidine Kinase Assay Using [CH3-^3H]dThd as the Natural Substrate. The activity of recombinant thymidine kinase 1 (TK-1), TK-2, and herpes simplex virus-1 (HSV-1) TK, and the 50% inhibitory concentration of the test compounds, were assayed in a 50-μL reaction mixture containing 50 mM Tris/HCl, pH 8.0, 2.5 mM MgCl2, 10 mM dithiothreitol, 0.5 mM CHAPS, 3 mg/mL bovine serum albumin, 2.5 mM ATP, 1 µM [methyl-^3H]dThd, and enzyme. The samples were incubated at 37 °C for 30 min in the presence or absence of different concentrations (five-fold dilutions) of the test compounds. At this time, the enzyme reaction still proceeded linearly. Aliquots of 45 µL of the reaction mixtures were spotted on Whatman DE-81 filter paper disks (Whatman, Clifton, NJ, USA). The filters were washed three times for 5 min each in 1 mM ammonium formate, once for 1 min in water, and once for 5 min in ethanol. The radioactivity was determined by scintillation counting.

[2] = target: T2, Human TK-1 (Homo sapiens, UniProt P04183); assay: Thymidine kinase assay using [CH3-3H]dThd as natural substrate, TK-1; format: biochemical; details: for IC50: 50% inhibitory concentration for TK-catalyzed conversion of [3H]dThd to its 5'-monophosphate, 1 µM dThd, 37 °C, 30 min
T2 sequence (P04183 1-234): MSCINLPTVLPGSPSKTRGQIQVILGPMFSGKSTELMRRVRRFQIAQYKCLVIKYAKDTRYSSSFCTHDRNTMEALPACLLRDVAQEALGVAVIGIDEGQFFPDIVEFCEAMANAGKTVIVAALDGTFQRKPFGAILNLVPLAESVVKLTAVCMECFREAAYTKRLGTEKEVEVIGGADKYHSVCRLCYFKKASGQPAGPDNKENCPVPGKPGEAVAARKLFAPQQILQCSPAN
Experimental: as §1

[3] = target: T1, HSV-1 TK; assay: Substrate activity for HSV-1 TK by HPLC technology; format: biochemical, herpes simplex virus-1
Excerpt: Therefore, to evaluate this last point, we performed further studies to test the suitability of these compounds to pass the usual rate-limiting first phosphorylation step. Thus, the affinity of the synthesized compounds 2a–e for the cellular and HSV-1 thymidine kinases (TKs) were investigated (Table 2). […] It was expected that this cytosine analogue might show affinity for HSV-1 TK, as the natural nucleoside (2-deoxycytidine, 2-dC) is known to be recognized by several kinases, including HSV-1 TK; however, that was apparently not the case. […] Therefore, because some of the synthesized analogues were recognized by the virus-encoded nucleoside kinase, the lack of antiherpetic activity could be attributed to the lack of further conversion of the 5′-monophosphate derivative to the 5′-triphosphate or to a low affinity, if any, of the 5′-triphosphate metabolite to the virus-encoded DNA polymerase.

[4] = target: T3, Human TK-2 (Homo sapiens, UniProt O00142); assay: Thymidine kinase assay using [CH3-3H]dThd as natural substrate, TK-2; format: biochemical; details: for IC50: 50% inhibitory concentration for TK-catalyzed conversion of [3H]dThd to its 5'-monophosphate, 1 µM dThd, 37 °C, 30 min
T3 sequence (O00142 34-265): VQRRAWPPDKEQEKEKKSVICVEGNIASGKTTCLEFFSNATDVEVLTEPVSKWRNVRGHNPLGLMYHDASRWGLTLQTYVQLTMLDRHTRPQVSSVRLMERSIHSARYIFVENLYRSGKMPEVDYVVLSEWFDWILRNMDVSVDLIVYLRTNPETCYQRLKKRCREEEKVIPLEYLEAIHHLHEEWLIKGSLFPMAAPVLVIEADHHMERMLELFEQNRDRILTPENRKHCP
Experimental: as §1

[5] = tested on: human embryonic lung (HEL) fibroblasts; assay: Cytotoxicity in HEL cell cultures (alteration of cell morphology); details: microscopically detectable alteration of normal cell morphology

T1 sequence (P0DTH5 whole entry): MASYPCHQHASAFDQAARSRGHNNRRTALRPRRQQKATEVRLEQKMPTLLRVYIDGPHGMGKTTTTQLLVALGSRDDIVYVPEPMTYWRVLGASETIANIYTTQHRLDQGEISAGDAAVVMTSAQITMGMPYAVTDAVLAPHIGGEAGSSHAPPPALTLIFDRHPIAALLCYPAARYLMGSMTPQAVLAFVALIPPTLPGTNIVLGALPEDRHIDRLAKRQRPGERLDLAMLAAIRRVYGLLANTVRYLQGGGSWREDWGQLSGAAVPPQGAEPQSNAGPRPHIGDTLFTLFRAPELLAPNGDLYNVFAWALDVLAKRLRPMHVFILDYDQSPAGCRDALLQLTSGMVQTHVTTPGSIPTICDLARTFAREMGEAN

Row | Structure (SMILES) | Affinity for HSV-1 TK (in words) [1] | IC50 [1] [µM] | Affinity for human TK-1 / human cellular kinases (in words) [2] | IC50 [2] [µM] | Substrate activity for HSV-1 TK, conversion to the monophosphate metabolite [3] | Affinity for mitochondrial TK-2 (in words) [4] | IC50 [4] [µM] | Cytotoxicity, minimum cytotoxic concentration [5] [µM]
1 | Nc1nc2c(ncn2[C@H]2CC[C@@H](CO)[C@@H]3C[C@@H]32)c(=O)[nH]1 [Compound 2b] | excellent affinity; also recorded: display affinity | 5.81 | not for human TK-1 | > 726 | good substrate | some marginal affinity | 338 | 
2 | Nc1ccn(C[C@@H](CO)OCP(=O)(O)O)c(=O)n1 [Cidofovir] |  |  |  |  |  |  |  | > 250
3 | Nc1nc2c(ncn2COCCO)c(=O)[nH]1 [Acyclovir] |  |  |  |  |  |  |  | > 250
4 | Nc1ccn(C2CCC(CO)C3CC32)c(=O)n1 (stereo not drawn) [Compound 2e, 4-Amino-1-[(1′S,2′S,5′R,6′R)-5′-(hydroxymethyl)bicyclo [4.1.0]hept-2′-yl]pyrimidin-2(1H)-one] | did not display affinity | > 425 |  | > 425 |  |  | > 425 | > 100
5 | Cc1cn([C@H]2CC[C@@H](CO)[C@@H]3C[C@@H]32)c(=O)[nH]c1=O [Compound 2d] | display affinity | 208 | not for human TK-1 | > 799 |  |  | > 799 | 
6 | O=c1[nH]c(=O)n([C@H]2C[C@H](O)[C@@H](CO)O2)cc1/C=C/Br [Brivudin] |  |  |  |  |  |  |  | > 250
7 | Nc1ncnc2c1ncn2[C@H]1CC[C@@H](CO)[C@@H]2C[C@@H]21 [Compound 2a] |  | 578 |  | > 771 |  |  | > 771 | 
8 | Nc1nc(O)c2ncn(COC(CO)CO)c2n1 [Ganciclovir] |  |  |  |  |  |  |  | > 100
9 | O=c1ccn([C@H]2CC[C@@H](CO)[C@@H]3C[C@@H]32)c(=O)[nH]1 [Compound 2c] |  | > 846 |  | > 846 |  |  | > 846 | 
